Data published in patent US6302837A, “Benzothiophene, benzofuran and indole compounds” (Adir et Compagnie, priority 1999, dated 2001).

These molecules were tested against recombinant active human PAI-1 (Homo sapiens, UniProt P05121) (assay: Inhibition of the activity of PAI-1 in vitro (fibrin clot breakdown, turbidity)). Details: absorbance two hours after start of fibrin formation, 50 mM phosphate buffer pH 7.4, tissue plasminogen activator, fibrinogen, thrombin, read-out: IC50 (concentration of product that inhibits PAI-1 activity by 50%).
Sequence of recombinant active human PAI-1 (P05121 24-402): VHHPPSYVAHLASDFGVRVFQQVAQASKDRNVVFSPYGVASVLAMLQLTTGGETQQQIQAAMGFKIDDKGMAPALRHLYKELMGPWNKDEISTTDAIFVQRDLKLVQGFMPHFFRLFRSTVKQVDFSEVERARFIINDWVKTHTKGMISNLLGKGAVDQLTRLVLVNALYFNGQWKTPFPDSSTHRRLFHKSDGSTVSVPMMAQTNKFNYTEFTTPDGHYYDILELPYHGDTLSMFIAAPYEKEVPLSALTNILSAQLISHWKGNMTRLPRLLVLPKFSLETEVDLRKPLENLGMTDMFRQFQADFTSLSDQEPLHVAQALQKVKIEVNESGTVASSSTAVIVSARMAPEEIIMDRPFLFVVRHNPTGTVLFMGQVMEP
Type: biochemical
Experimental: Inhibition of the activity of PAI-1 was effected in vitro in microplate wells in which the formation and then breakdown of a fibrin clot is monitored continuously by measurement of its turbidity using a spectrophotometer. To do so, using, as diluent, a 50 mM phosphate buffer pH 7.4 containing 0.05% of bovine serum albumin, […] of the inhibitor is placed in the presence of 50 μl of a 2 nM solution of recombinant active human PAI-1 for 5 minutes at ambient temperature. 50 μl of a 0.42 nM solution of tissue plasminogen activator, 50 μl of an 800 nM solution of human plasminogen and 50 μl of a 2 g/liter solution of fibrinogen are then added and the fibrin formation is triggered by the addition of 50 μl of 14 nM purified human thrombin. In the absence of the product, inhibition of breakdown two hours after the start of fibrin formation is measured by the absorbance of the clot and represents 100% of the PAI-1 activity. In the absence of the product and of PAI-1, breakdown is measured by the absorbance of the broken-down clot and represents 0% of the PAI-1 activity. The concentration of product that inhibits PAI-1 activity by 50% is determined by measuring the absorbance of the clot two hours after fibrin formation in the presence of PAI-1 and of an increasing concentration of the product.

IC50 [µM]	SMILES
0.06	O=C(O)/C(=C/c1sc2cc(OCc3ccc(-c4ccccc4)cc3)c(OCc3ccc(-c4ccccc4)cc3)cc2c1Oc1ccccc1)c1ccncc1 [Example 26, (E)-3-[5,6-Bis([1,1'-biphenyl]-4-ylmethoxy)-3-phenoxy-benzo[b]thiophen-2-yl]-2-(4-pyridyl)-2-propenoic acid]
0.13	O=C(O)/C(=C/c1sc2cc(OCc3ccc(-c4ccccc4)cc3)c(OCc3ccc(-c4ccccc4)cc3)cc2c1Oc1ccc(Cl)cc1)c1ccncc1 [Example 2, (E)-3-[5,6-Bis-([1,1'-biphenyl]-4-ylmethoxy)-3-(4-chlorophenoxy)-benzo[b]thiophen-2-yl]-2-(4-pyridyl)2-propenoic acid]
0.53	O=C(O)/C(=C/c1sc2cc(OCc3ccc(-c4ccccc4)cc3)c(OCc3ccc(-c4ccccc4)cc3)cc2c1Oc1cccnc1)c1ccncc1 [Example 10]
